Results from article PMC5908784, “Extracellular loops 2 and 3 of the calcitonin receptor selectively modify agonist binding and efficacy” (Biochemical Pharmacology, 2018).
Numbering of substitutions follows the chain as printed. Where a SMILES comes first, the peptide text is derived from it. Bridges are numbered along the chain shown (N, C = ends).

Key:
Test in all cases: ERK1/2 phosphorylation
Type in all cases: cell-based
Details in all cases: CV1-FlpIn cells, mean ± S.E.M.; for Emax: pERK maximal response; for EC50: pERK, three-parameter logistic fit
hCTR Y284A = biological target: T1, hCTR Y284A (Homo sapiens, UniProt P30988, Y284A)
T1 construct: expressed in transfected cells
T1 sequence (P30988 25-474 Y284A): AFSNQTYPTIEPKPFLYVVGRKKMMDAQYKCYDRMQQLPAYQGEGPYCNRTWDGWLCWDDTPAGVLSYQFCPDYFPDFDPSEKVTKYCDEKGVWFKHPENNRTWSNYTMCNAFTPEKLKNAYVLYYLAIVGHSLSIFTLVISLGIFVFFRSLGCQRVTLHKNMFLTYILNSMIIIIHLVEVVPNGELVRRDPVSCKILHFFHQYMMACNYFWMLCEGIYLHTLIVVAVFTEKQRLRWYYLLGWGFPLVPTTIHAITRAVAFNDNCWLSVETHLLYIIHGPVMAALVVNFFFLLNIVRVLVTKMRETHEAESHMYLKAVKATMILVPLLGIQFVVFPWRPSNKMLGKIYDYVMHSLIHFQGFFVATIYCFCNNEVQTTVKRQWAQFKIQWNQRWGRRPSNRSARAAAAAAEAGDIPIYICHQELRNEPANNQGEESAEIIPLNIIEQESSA
Outline: (§1)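 Cells were seeded at 2.5 × 10^4 cells/well and cultured overnight before stimulation. ERK1/2 phosphorylation was normalized to the maximal response to 10% FBS measured at 6 min. EC50 and Emax came from a 3-parameter logistic fit of concentration-response curves.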

hCTR M376A = biological target: T2, hCTR M376A (Homo sapiens, UniProt P30988, M376A)
T2 construct: c-Myc (N); expressed in transfected cells
T2 sequence (P30988 25-474 M376A): T1 sequence (P30988 25-474 Y284A) with A260Y, M352A
Outline: as §1

hCTR N288A = biological target: T3, hCTR N288A (Homo sapiens, UniProt P30988, N288A)
T3 construct: expressed in transfected cells
T3 sequence (P30988 25-474 N288A): T1 sequence (P30988 25-474 Y284A) with A260Y, N264A
Outline: as §1

hCTR G369A = biological target: T4, hCTR G369A (Homo sapiens, UniProt P30988, G369A)
T4 construct: c-Myc (N); expressed in transfected cells
T4 sequence (P30988 25-474 G369A): T1 sequence (P30988 25-474 Y284A) with A260Y, G345A
Outline: as §1

hCTR N365A = biological target: T5, hCTR N365A (Homo sapiens, UniProt P30988, N365A)
T5 construct: c-Myc (N); expressed in transfected cells
T5 sequence (P30988 25-474 N365A): T1 sequence (P30988 25-474 Y284A) with A260Y, N341A
Outline: as §1

EC50 (hCTR Y284A) [nM]	EC50 (hCTR M376A) [nM]	EC50 (hCTR N288A) [nM]	EC50 (hCTR G369A) [nM]	EC50 (hCTR N365A) [nM]	SMILES	Emax (hCTR Y284A) [%]	Emax (hCTR M376A) [%]	Emax (hCTR N288A) [%]	Emax (hCTR G369A) [%]	Emax (hCTR N365A) [%]
					CC[C@H](C)[C@H](NC(=O)[C@H](C)NC(=O)[C@@H](NC(=O)[C@H](CCC(N)=O)NC(=O)[C@@H]1CCCN1C(=O)[C@H](Cc1ccccc1)NC(=O)[C@@H](NC(=O)[C@H](Cc1c[nH]cn1)NC(=O)[C@H](Cc1ccccc1)NC(=O)[C@H](CCCCN)NC(=O)[C@H](CC(N)=O)NC(=O)[C@H](Cc1ccccc1)NC(=O)[C@H](CC(=O)O)NC(=O)[C@H](CCC(N)=O)NC(=O)[C@@H](NC(=O)[C@H](Cc1ccc(O)cc1)NC(=O)[C@@H](NC(=O)CNC(=O)[C@H](CC(C)C)NC(=O)[C@H](CCSC)NC(=O)[C@@H]1CSSC[C@H](N)C(=O)NCC(=O)N[C@@H](CC(N)=O)C(=O)N[C@@H](CC(C)C)C(=O)N[C@@H](CO)C(=O)N[C@@H]([C@@H](C)O)C(=O)N1)[C@@H](C)O)[C@@H](C)O)[C@@H](C)O)[C@@H](C)O)C(=O)NCC(=O)N[C@H](C(=O)NCC(=O)N[C@@H](C)C(=O)N1CCC[C@H]1C(N)=O)C(C)C [hCT]	82 ± 7	52 ± 4	137 ± 8	141 ± 9	93 ± 6
112	18.2	97.7	81.3	30.2	CC(C)C[C@H](NC(=O)CNC(=O)[C@H](C)NC(=O)[C@H](CC(C)C)NC(=O)[C@H](CCCNC(=N)N)NC(=O)[C@H](Cc1cnc[nH]1)NC(=O)[C@@H](NC(=O)[C@@H](NC(=O)[C@@H]1CSSC[C@H](NC(=O)[C@H](C)N)C(=O)N[C@@H](CC(=O)O)C(=O)N[C@@H]([C@@H](C)O)C(=O)N[C@@H](C)C(=O)N[C@@H]([C@@H](C)O)C(=O)N1)C(C)C)[C@@H](C)O)C(=O)N[C@@H](CC(C)C)C(=O)N[C@@H](CO)C(=O)N[C@@H](CCCNC(=N)N)C(=O)N[C@@H](CO)C(=O)NCC(=O)NCC(=O)N[C@H](C(=O)N[C@H](C(=O)N[C@@H](CCCCN)C(=O)N[C@@H](CC(N)=O)C(=O)N[C@@H](CC(N)=O)C(=O)N[C@@H](Cc1ccccc1)C(=O)N[C@H](C(=O)N1CCC[C@H]1C(=O)N[C@H](C(=O)N[C@@H](CC(N)=O)C(=O)N[C@H](C(=O)NCC(=O)N[C@@H](CO)C(=O)N[C@@H](CCCCN)C(=O)N[C@@H](C)C(=O)N[C@@H](Cc1ccccc1)C(N)=O)C(C)C)[C@@H](C)O)C(C)C)C(C)C)C(C)C [hαCGRP]	79 ± 15	36 ± 8	110 ± 10	87 ± 14	52 ± 8
1.2	1.95	2.95	5.25	1.62	CSCC[C@H](NC(=O)CNC(=O)[C@H](CO)NC(=O)[C@H](Cc1ccccc1)NC(=O)[C@H](CCCNC(=N)N)NC(=O)[C@H](Cc1c[nH]cn1)NC(=O)[C@H](Cc1ccccc1)NC(=O)[C@H](CC(N)=O)NC(=O)[C@H](CC(N)=O)NC(=O)[C@H](CC(C)C)NC(=O)[C@H](CC(N)=O)NC(=O)[C@H](CCCNC(=N)N)NC(=O)[C@H](Cc1c[nH]c2ccccc12)NC(=O)[C@H](Cc1ccc(O)cc1)NC(=O)[C@H](C)NC(=O)[C@H](CO)NC(=O)[C@H](CC(C)C)NC(=O)[C@@H](NC(=O)[C@@H]1CSSC[C@H](N)C(=O)N[C@@H](CO)C(=O)N[C@@H](CC(N)=O)C(=O)N[C@@H](CC(C)C)C(=O)N[C@@H](CO)C(=O)N[C@@H]([C@@H](C)O)C(=O)N1)C(C)C)C(=O)NCC(=O)N[C@@H](Cc1ccccc1)C(=O)NCC(=O)N1CCC[C@H]1C(=O)N[C@@H](CCC(=O)O)C(=O)N[C@H](C(=O)N1CCC[C@H]1C(N)=O)[C@@H](C)O [pCT] (H-CSNLSTCVLSAYWRNLNNFHRFSGMGFGPETP-NH2; disulfide 1-7)	81 ± 6	47 ± 4	135 ± 11	128 ± 8	98 ± 10
					CC(C)C[C@H](NC(=O)[C@H](CC(N)=O)NC(=O)[C@H](CC(N)=O)NC(=O)[C@H](CO)NC(=O)[C@H](CO)NC(=O)[C@H](CCCNC(=N)N)NC(=O)[C@@H](NC(=O)[C@H](CC(C)C)NC(=O)[C@H](Cc1ccccc1)NC(=O)[C@H](CC(N)=O)NC(=O)[C@H](C)NC(=O)[C@H](CC(C)C)NC(=O)[C@H](CCCNC(=N)N)NC(=O)[C@H](CCC(N)=O)NC(=O)[C@@H](NC(=O)[C@H](C)NC(=O)[C@@H]1CSSC[C@H](NC(=O)[C@@H](N)CCCCN)C(=O)N[C@@H](CC(N)=O)C(=O)N[C@@H]([C@@H](C)O)C(=O)N[C@@H](C)C(=O)N[C@@H]([C@@H](C)O)C(=O)N1)[C@@H](C)O)C(C)C)C(=O)NCC(=O)N1CCC[C@H]1C(=O)N[C@H](C(=O)N[C@@H](CC(C)C)C(=O)N1CCC[C@H]1C(=O)N1CCC[C@H]1C(=O)N[C@H](C(=O)N[C@@H](CC(N)=O)C(=O)N[C@H](C(=O)NCC(=O)N[C@@H](CO)C(=O)N[C@@H](CC(N)=O)C(=O)N[C@H](C(=O)N[C@@H](Cc1ccc(O)cc1)C(N)=O)[C@@H](C)O)C(C)C)[C@@H](C)O)C(C)C [rAmy]	64 ± 6	43 ± 7	79 ± 7	63 ± 8	63 ± 10
					CC(C)C[C@H](NC(=O)[C@H](CCCCN)NC(=O)CNC(=O)[C@H](CC(C)C)NC(=O)[C@@H](NC(=O)[C@@H]1CSSC[C@H](N)C(=O)N[C@@H](CO)C(=O)N[C@@H](CC(N)=O)C(=O)N[C@@H](CC(C)C)C(=O)N[C@@H](CO)C(=O)N[C@@H]([C@@H](C)O)C(=O)N1)C(C)C)C(=O)N[C@@H](CO)C(=O)N[C@@H](CCC(N)=O)C(=O)N[C@@H](CCC(=O)O)C(=O)N[C@@H](CC(C)C)C(=O)N[C@@H](Cc1c[nH]cn1)C(=O)N[C@@H](CCCCN)C(=O)N[C@@H](CC(C)C)C(=O)N[C@@H](CCC(N)=O)C(=O)N[C@H](C(=O)N[C@@H](Cc1ccc(O)cc1)C(=O)N1CCC[C@H]1C(=O)N[C@@H](CCCNC(=N)N)C(=O)N[C@H](C(=O)N[C@@H](CC(N)=O)C(=O)N[C@H](C(=O)NCC(=O)N[C@@H](CO)C(=O)NCC(=O)N[C@H](C(=O)N1CCC[C@H]1C(N)=O)[C@@H](C)O)[C@@H](C)O)[C@@H](C)O)[C@@H](C)O [sCT]	96 ± 6	72 ± 5	127 ± 13	115 ± 4	84 ± 3
